{
  "source": "patent US12281329B2",
  "about": "“Compositions and methods for immune cell modulation in adoptive immunotherapies” (Fate Therapeutics, Inc., priority 2016, dated 2025)",
  "key": {"[1]": {"tested_on": "K562 tumor cells and allogeneic PBMC", "test": "Dual-target cytotoxicity assay, K562 tumor cells mixed with allogeneic PBMC", "type": "cell-based, human", "details": "GSK3i modulated NK cells; 3-4 NK cell donors per PBMC donor", "description": "Cytotoxicity of GSK3i modulated NK cells against allogeneic PBMC was evaluated in combination with K562 tumor cells in a dual-target cytotoxicity assay. Percent specific killing in PBMC+K562+overnight primed NK cells or PBMC+K562+GSK3i modulated NK cells was measured."}, "HER2+ SKOV3 cells": {"tested_on": "HER2+ SKOV3 cells", "test": "NK cell killing and Herceptin ADCC of SKOV3 cells", "type": "cell-based, human", "description": "(§1) NK Cell Cytotoxicity Assay: Cytotoxicity was determined using a flow cytometry based method based on a previously published method (Kim, et al. J Immunol Methods. 2007 Aug. 31; 325(1-2): 51-66). NK cells were co-cultured with e450-proliferation dye-labelled targets for 4 hours. CellEvent™ Caspase-3/7 Green Flow Cytometry Assay Kit (Lifer Technologies) was used to assay for cell death among target cells, and samples were read on a BD LSRFortessa cytometer. Killing of SKOV-3 targets was quantified using the Incucyte Zoom instrument. SKOV-3 cells were transiently transduced with NucLight-Red BacMam reagent (Essen Biosciences) and co-cultured with the indicated NK cell populations for 74 hours, with images taken on two hour intervals. Caspase 3/7 activity was monitored to indicate target cells undergoing apoptosis using the CellEvent™ Caspase-3/7 Green Detection Reagent. The number of target cells was normalized to SKOV-3 cells cultured alone, and targets undergoing apoptosis were quantified based on caspase 3/7 activity.\nIn a similar fashion, SKOV3 cells were treated with NK cells derived from overnight culture with IL15, 7 day culture with IL15 and 7 day culture with IL15 and GSK3i. […]"}, "NK cells [2]": {"tested_on": "NK cells", "test": "NK cell intracellular cytokine staining after IL-12+IL-18 or K562 stimulation", "type": "cell-based, human", "details": "7 days 10 ng/ml IL-15 + 5 uM CHIR99021; 4-hour IL12+IL18 or K562 stimulation; vs primed or 7 day IL15 only", "protocol": "NK Cell Intracellular Cytokine Staining: CD3/CD9 depleted PBMC were cultured for 7 days with 10 ng/ml IL-15 and 5 uM CHIR99021 or vehicle control. On culture day 7 cells were washed and cultured separately with IL-12 and IL-18 (long/ml and 50 ng/ml, respectively) (Life Technologies) or with K562 cells at a 1:1 ratio. Golgistop (BD Biosciences) was included in the culture media to facilitate intracellular detection of cytokines. After a 4 hour culture period, cells were stained for cell surface antigens and fixed prior to intracellular staining with antibodies to IFN-gamma and TNF-alpha (BD Biosciences). Staining was performed using the BD Cytofix/Cytoperm™ Kit according to the manufacturer's instructions.\nAlso analyzed was the effect of GSK3 inhibitor treatment to NK cell cytokine response. PBMC obtained directly from donors were cultured after CD3/CD9 depletion for 7 days with 10 ng/ml IL-15 and 5 uM CHIR99021, or with IL15 only. On day 7, cells were washed and cultured separately with IL-12 (long/ml) and IL-18 (50 ng/ml), or with K562 cells at a 1:1 ratio for stimulation. After a 4-hour culture period, cells were stained for cell surface antigens and fixed prior to intracellular staining with antibodies to IFNγ and TNFα, respectively."}, "SKOV-3 cells": {"tested_on": "SKOV-3 cells", "test": "In vivo tumor clearing of luciferase-expressing SKOV-3 cells by modulated NK cells with Herceptin", "set-up": "species or system NSG mice", "from_the_text": "In vivo tumor clearing using Modulated NK cells: NSG mice were irradiated with 300 rads one day prior to intraperitoneal transplant of 2×10^5 luciferase-expressing SKOV-3 cells. 5 days after transplant of the ovarian carcinoma cells, mice were either left untreated, treated with Herceptin only, or treated with Herceptin, IL-15, and NK cells cultured for 7 days with IL-15 and CHIR99021. Luciferase-expressing SKOV-3 cells were imaged on day 21 using the IVIS imaging system.\nMoreover, the in vivo tumor clearance ability of GSK3i cultured NK cells using the process provided herein was also tested. NSG mice were irradiated with 300 rads one day prior to intraperitoneal transplant of luciferase-expressing SKOV-3 cells. 5 days after the ovarian carcinoma cell transplant, the mice were either left untreated, treated with Herceptin only, or treated with Herceptin, IL-15, and NK cells cultured for 7 days with IL-15 and CHIR99021. […]\nThe in vivo tumor clearance ability of GSK3i cultured NK cells using the process provided herein was then compared to overnight primed CD3/CD19 depleted PBMC, and CD3/CD19 depleted PBMC cultured for 7 days with IL-15 and DMSO. […] Luciferase-expressing SKOV-3 cells were quantified by measuring luciferase activity using the IVIS imaging system."}, "CD20+ Raji cells": {"tested_on": "CD20+ Raji cells", "test": "NK cell cytotoxicity assay, Raji target cells", "type": "cell-based, human", "details": "4 hours; NK cells overnight IL-15 only or 7 days IL15 + GSK3i", "description": "as §1\nThe ability of GSK3 inhibition to enhance cytotoxicity of NK cells isolated directly from donors was assessed using in vitro killing assays. […] After the target cells were incubated with the differently treated NK cells for 4 hours, the respective percentage of specific killing (target cell lysis) was calculated. […]"}, "NK cells [3]": {"tested_on": "NK cells", "test": "Maintenance of modulated NK cell phenotype after transfer into NSG mice", "type": "in vivo", "description": "The mice received only IL-15 with no GSK3i. It was shown that NK cells cultured in vitro with GSK3i for 7 days maintain their phenotypic changes in vivo for at least one week after being transferred and without the presence of the small molecule. CD57 remains high representing the maturity of the NK cells which was not the case when the cells were cultured without GSK3i (FIGS. 9A and 9B)."}, "NK cells [4]": {"tested_on": "NK cells", "test": "NK cell culture with modified K562 feeder cells: proliferation and subtype skewing", "type": "cell-based, human", "details": "7 days", "protocol": "CD3/19 depleted PBMCs were cultured for 7 days with modified K562 feeder cells in the presence of DMSO (Vehicle), 0.1 uM GSK3i CHIR99021 alone (C), or a combination of 0.1 uM GSK3i CHIR99021, 40 nM MEKi PD0325901, and 1 nM Rapamycin (CPR)."}, "primary AML blasts": {"tested_on": "primary AML blasts", "test": "NK cell cytotoxicity against primary AML blasts", "type": "cell-based, human", "details": "multi-day IL-15 + GSK3i NK cells vs overnight primed", "description": "as §1\nCytotoxicity of CD3/CD19 depleted PBMC cultured multiple days with IL-15 and GSK3i (GSK3i modulated NK cells) versus overnight primed NK cells against primary AML blasts were also compared. Percent specific killing of primary AML blasts from multiple patients was measured by flow cytometry-based cytotoxicity assay."}},
  "data": [
    {"compound": "Cc1c[nH]c(-c2cnc(NCCNc3ccc(C#N)cn3)nc2-c2ccc(Cl)cc2Cl)n1", "note": "[CHIR99021]", "values": [
      {"measurement": "percent specific killing of K562 versus allogeneic PBMC", "setting": "[1]", "result": "selectively target those cells among normal cells"},
      {"measurement": "killing of SKOV3 cells (killing rate and killing efficiency; elimination, caspase 3/7 peak)", "setting": "HER2+ SKOV3 cells; 7 day IL15 + GSK3i vs overnight IL15 and 7 day IL15", "result": "most effective"},
      {"measurement": "ADCC killing of SKOV3 with HER2 antibody (Herceptin)", "setting": "HER2+ SKOV3 cells; NK cells 7 days IL15 + GSK3i vs overnight IL15 and 7 day IL15", "result": "enhanced"},
      {"measurement": "IFNγ production in NK cells", "setting": "NK cells [2]", "result": "enhanced"},
      {"measurement": "TNFα production in NK cells", "setting": "NK cells [2]", "result": "enhanced"},
      {"measurement": "in vivo SKOV-3 ADCC killing (luciferase activity)", "setting": "SKOV-3 cells; 100 ug Herceptin + 2.5×10^6 cells, vs overnight primed and 7 day IL-15 + DMSO", "result": "highly and consistently effective"},
      {"measurement": "tumor-suppressive effects of Herceptin antibody treatment", "setting": "SKOV-3 cells; NK cells cultured 7 days with IL-15 and CHIR99021, plus Herceptin and IL-15, imaged Day 21 post-transplant", "result": "enhances"},
      {"measurement": "E:T50, Raji cells", "setting": "CD20+ Raji cells", "result": "1-2"},
      {"measurement": "CD57 on NK cells from peripheral blood", "setting": "NK cells [3]; 7 days after transfer of 7 day IL15+GSK3i cultured NK cells, mice received only IL-15", "result": "remains high"},
      {"measurement": "CD16 and NKG2C+/CD57+ on transferred NK cells", "setting": "NK cells [3]; 7 days after transfer, without small molecule", "result": "maintained in vivo"},
      {"measurement": "proliferation of the activated NK cells overall", "setting": "NK cells [4]; K562 feeder modified to express IL21 and 41BBL, vs vehicle", "result": "increased"},
      {"measurement": "number of CD57+NK cells", "setting": "NK cells [4]; modified K562 feeder cells, vs vehicle control", "result": "highest"},
      {"measurement": "percent specific killing of primary AML blasts", "setting": "primary AML blasts", "result": "highly and consistently effective"}
    ]}
  ]
}
